This is an account of results in patent US20220265685A1, “METHODS AND COMPOSITIONS FOR IMPROVING COGNITIVE FUNCTION” (priority 2010, published 2022).

In one assay the test system is aMCI subjects. In words: explicit 3-alternative forced choice task (lure stimuli), performance. The format is in vivo, human. The following applies: levetiracetam 125 mg twice a day for two weeks vs placebo, p=0.039. From the text:
There are various tests known in the art for assessing cognitive function in humans, for example and without limitation, the clinical global impression of change scale (CIBIC-plus scale); the Mini Mental State Exam (MMSE); the Neuropsychiatric Inventory (NPI); the Clinical Dementia Rating Scale (CDR); the Cambridge Neuropsychological Test Automated Battery (CANTAB); the Sandoz Clinical Assessment-Geriatric (SCAG), the Buschke Selective Reminding Test (Buschke and Fuld, 1974); the Verbal Paired Associates subtest; the Logical Memory subtest; the Visual Reproduction subtest of the Wechsler Memory Scale-Revised (WMS-R) (Wechsler, 1997); or the Benton Visual Retention Test. […]
As described above, the drug treatment period is the two weeks preceding Visit 1 or 2 (with the two week period preceding the other Visit being the placebo phase). For the subjects receiving the drug treatment, half a scored 250 mg tablet of levetiracetam is used to achieve a dose of […], which is approximately 3.6 mg/kg/day (assuming an average adult human weight of 70 kg).
The activity of the subject's medial temporal lobe is measured by functional MRI during the subject's participation in an explicit 3-alternative forced choice task, where participants view novel, repeated and similar (“lure”) stimuli. […]

For another assay, the system named is aged-impaired (AI) rats. Nature of the assay: Radial Arm Maze (RAM) task, spatial memory retention of aged-impaired rats. The format is in vivo, Long-Evans rats. The protocol: FIG. 1 depicts the effects of administering levetiracetam on the spatial memory retention of ten aged-impaired rats (AI) in an eight-arm Radial Arm Maze (RAM) test. Six treatment conditions are employed: vehicle control, levetiracetam (1.25 mg/kg/day), levetiracetam (2.5 mg/kg/day), levetiracetam (5 mg/kg/day), levetiracetam (10 mg/kg/day) and levetiracetam (20 mg/kg/day). In the RAM task used, there is a one-hour delay between presentation of a subset of arms (5 arms available and 3 arms blocked) and completion of the eight-arm win-shift task (eight arms available). Rats are pre-treated 30-40 minutes before daily trials with a one-time drug/control treatment. The number of errors made by the rats during the retention phase is used as a measure of spatial memory retention. Errors are defined as instances when rats enter an arm from which food has already been retrieved in the pre-delay component of the trial or when rats re-visit an arm in the post-delay session that had already been visited. Paired t-tests are used to compare the number of errors between different doses of levetiracetam and vehicle control.
FIG. 2 depicts the effects of administering donepezil only and administering a combination of donepezil and levetiracetam on the spatial memory retention of eight aged-impaired rats (AI) in an eight-arm Radial Arm Maze (RAM) test. Four treatment conditions are employed: vehicle control, donepezil only (1 mg/kg/day), donepezil (2 mg/kg/day), and a combination of donepezil (1 mg/kg/day) and levetiracetam (2.5 mg/kg/day). In the RAM task used, there is a two-hour delay between presentation of a subset of arms (5 arms available and 3 arms blocked) and completion of the eight-arm win-shift task (eight arms available). Rats are pre-treated 30-40 minutes before daily trials with a one-time drug/control treatment. The number of errors made by the rats during the retention phase is used as a measure of spatial memory retention. Errors are defined as instances when rats enter an arm from which food has already been retrieved in the pre-delay component of the trial or when rats re-visit an arm in the post-delay session that have already been visited. Paired t-tests are used to compare the number of errors between different doses of drug treatment and vehicle control.
Aged, male Long-Evans rats were obtained at 8 to 9 months of age from Charles River Laboratories (Raleigh, N.C.) and housed in a vivarium until 24 to 26 months of age. All rats were individually housed at 25° C. and maintained on a 12 h light/dark cycle. Food and water were provided ad libitum unless noted otherwise. The rats were examined for health and pathogen-free status throughout the experiments, as well as necropsies at the time of killing.
All rats were screened in a standardized assessment of spatial cognition. This background assessment used the above-described well-established MWM protocol. […] The selected AI rats were tested for their memory of new spatial information in a Radial Arm Maze (RAM) task, under different drug/control treatment conditions: vehicle control, donepezil only, levetiracetam only, and a combination of donepezil and levetiracetam. The RAM task also extended the behavioral assessment to spatial memory using appetitive motivation. We used a protocol that allowed within-subject assessment across drugs at different doses and in combinations (Koh et al., Neuropsychopharmacology, epub. 1-10, (2009)).
The radial maze consisted of eight arms projecting from each side of an octagonal center platform, with food well located at the distal end of each arm. Plexiglasm blocks could be positioned to prevent entry into any arm. Extra-maze cues were provided in the room surrounding the maze and illumination was provided by an overhead light.

Take `CC[C@@H](C(N)=O)N1CCCC1=O` [levetiracetam, (2S)-2-(2-oxopyrrolidin-1-yl) butanamide]: the “performance in the explicit 3-alternative forced choice task” value in the assay with aMCI subjects is listed as “improves significantly”. The “effective doses of levetiracetam used in the animal model” value in the assay with aged-impaired (AI) rats (AI rats, given acutely) lay within 5 to 10 mg/kg. For the same compound, in the assay with aged-impaired (AI) rats (levetiracetam 2.5 mg/kg/day individually, in the absence of donepezil), the “memory performance in AI rats” value was “does not significantly improve memory performance”. In addition, the “average no. of errors ± standard error of the mean (SEM), retention test” value in the assay with aged-impaired (AI) rats (levetiracetam 5 mg/kg/day i.p., one-hour delay RAM, AI rats n=10, vehicle control 2.00±0.42) is 0.75±0.32. Also, the “memory performance relative to vehicle control treatment” value in the assay on aged-impaired (AI) rats (levetiracetam 5 mg/kg/day, one-hour delay RAM, t(9)=2.18, p=0.057) was “significantly improves memory performance”; in the assay with aged-impaired (AI) rats (levetiracetam 10 mg/kg/day, one-hour delay RAM, t(9)=2.37, p=0.042) it was “significantly improves memory performance”. Also, the “average no. of errors ± SEM, retention test” value with aged-impaired (AI) rats (levetiracetam 10 mg/kg/day i.p., one-hour delay RAM, AI rats n=10, vehicle control 2.00±0.42) was determined as 0.80±0.27. The “performance of AI rats in the radial maze task” value in the assay on aged-impaired (AI) rats (levetiracetam 20 mg/kg) is on record as “fails to improve the performance”.
